Results reported in US20070082880A1 (priority 2005, published 2007).
pIC50: −log10 of the molar value. Where a name gives a salt, the structure may show the parent alone.

Experiments:
[1] = target: T1, human PKCθ full length enzyme (Homo sapiens, UniProt Q04759); assay: PKCθ IMAP Assay; type: biochemical; details: average value when one or more samples were tested; ATP 6 uM, PKCθ 1 nM
T1 construct: human PKCθ full length enzyme (Panvera Catalog No. P2996); purchased Panvera P2996
Method in brief: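 Full-length human PKCθ (1 nM final) with 6 uM ATP and 100 nM 5FAM-labelled peptide, 5% DMSO, 3.0 mM DTT in reaction buffer. 25 min at room temperature; IMAP bead binding 20 min, fluorescence polarization read. Compounds 2:1 serially diluted; no-ATP and no-enzyme wells as controls.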

T1 sequence (Q04759 whole entry): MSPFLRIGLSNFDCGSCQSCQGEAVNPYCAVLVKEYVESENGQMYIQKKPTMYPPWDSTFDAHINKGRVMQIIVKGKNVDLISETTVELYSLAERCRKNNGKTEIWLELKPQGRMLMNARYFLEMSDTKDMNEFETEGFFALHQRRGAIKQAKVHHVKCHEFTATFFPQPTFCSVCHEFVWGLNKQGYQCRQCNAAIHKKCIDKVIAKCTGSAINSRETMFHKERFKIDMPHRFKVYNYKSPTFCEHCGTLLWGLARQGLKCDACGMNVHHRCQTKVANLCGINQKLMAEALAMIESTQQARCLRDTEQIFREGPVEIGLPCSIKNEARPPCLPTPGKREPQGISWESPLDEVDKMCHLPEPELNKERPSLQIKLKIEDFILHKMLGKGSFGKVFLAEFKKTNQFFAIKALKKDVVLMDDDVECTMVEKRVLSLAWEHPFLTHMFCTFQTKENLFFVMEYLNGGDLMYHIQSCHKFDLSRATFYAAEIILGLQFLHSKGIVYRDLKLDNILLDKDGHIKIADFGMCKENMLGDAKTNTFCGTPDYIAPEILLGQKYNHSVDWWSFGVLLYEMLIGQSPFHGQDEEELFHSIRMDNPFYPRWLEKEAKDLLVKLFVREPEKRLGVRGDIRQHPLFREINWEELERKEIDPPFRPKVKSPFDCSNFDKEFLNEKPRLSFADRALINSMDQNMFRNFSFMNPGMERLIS

SMILES | pIC50 [1] | melting point
Cc1c(Nc2c(C#N)cnc3sc(/C=C/C(=O)O)cc23)ccc2[nH]ccc12 [Compound 283, (2E)-3-{5-cyano-4-[(4-methyl-1H-indol-5-yl)amino]thieno[2,3-b]pyridin-2-yl}acrylic acid] | 7.68 | > 350 °C
N#Cc1cnc2sc(I)cc2c1Nc1cccc2cc[nH]c12 [Compound 108, 4-(1H-indol-7-ylamino)-2-iodothieno[2,3-b]pyridine-5-carbonitrile] |  | > 245 °C
N#Cc1cnc2sc(-c3ccccc3C=O)cc2c1Nc1cccc2[nH]ccc12 [Compound 142, 2-(2-formylphenyl)-4-(1H-indol-4-ylamino)thieno[2,3-b]pyridine-5-carbonitrile] |  | 137 to 139 °C
Cc1c(Nc2c(C#N)cnc3sc(/C=C/CN4CCOCC4)cc23)ccc2[nH]ccc12 (as salt: HCl) [Compound 275, 4-[(4-methyl-1H-indol-5-yl)amino]-2-[(1E)-3-morpholin-4-ylprop-1-en-1-yl]thieno[2,3-b]pyridine-5-carbonitrile] |  | 230 °C (dec.)
N#Cc1cnc2sc(Cl)cc2c1Nc1ccc2[nH]ccc2c1 [Compound 495, 2-chloro-4-(1H-indol-5-ylamino)thieno[2,3-b]pyridine-5-carbonitrile] | 6.40 | 228 °C
Cc1c(Nc2c(C#N)cnc3sc(C#Cc4cncc(C(=O)N(C)C)c4)cc23)ccc2[nH]ccc12 [Compound 451, 5-({5-cyano-4-[(4-methyl-1H-indol-5-yl)amino]thieno[2,3-b]pyridin-2-yl}ethynyl)-N,N-dimethylnicotinamide] | 7.62 | > 260 °C
N#Cc1cnc2sc(CCC(=O)O)cc2c1Nc1ccc2[nH]ccc2c1 [Compound 285, 3-[5-cyano-4-(1H-indol-5-ylamino)thieno[2,3-b]pyridin-2-yl]propanoic acid] | 5.30 | 255 °C
Cc1c(Nc2c(C#N)cnc3sccc23)ccc2[nH]ccc12 [Compound 480, 4-[(4-methyl-1H-indol-5-yl)amino]thieno[2,3-b]pyridine-5-carbonitrile] | 7.17 | 255 °C
Cc1c(Nc2c(C#N)cnc3scc(CO)c23)ccc2[nH]ccc12 [Compound 496, 3-(Hydroxymethyl)-4-[(4-methyl-1H-indol-5-yl)amino]thieno[2,3-b]pyridine-5-carbonitrile] | 7.20 | 230 °C
Cc1c(Nc2c(C#N)cnc3sc(C4CCN(Cc5ccccc5)C4)cc23)ccc2[nH]ccc12 (stereo not shown) (as salt: HCl) [Compound 479, 2-(1-benzylpyrrolidin-3-yl)-4-[(4-methyl-1H-indol-5-yl)amino]thieno[2,3-b]pyridine-5-carbonitrile] |  | 185 °C (dec.)
N#Cc1cnc2sc(C(=O)O)cc2c1Nc1ccc2[nH]ccc2c1 [Compound 248, 5-cyano-4-(1H-indol-5-ylamino)thieno[2,3-b]pyridine-2-carboxylic acid] | 5.69 | > 250 °C
CCCCc1cc2c(Nc3ccc4[nH]ccc4c3)c(C#N)cnc2s1 [Compound 271, 2-butyl-4-(1H-indol-5-ylamino)thieno[2,3-b]pyridine-5-carbonitrile] | 5.94 | 210 °C
N#Cc1cnc2sc(-c3ccc(C=O)cc3)cc2c1Nc1cccc2[nH]ccc12 [Compound 136, 2-(4-formylphenyl)-4-(1H-indol-4-ylamino)thieno[2,3-b]pyridine-5-carbonitrile] |  | > 245 °C
CN1CCN(CC/C=C/c2cc3c(Nc4ccc5[nH]ccc5c4)c(C#N)cnc3s2)CC1 [Compound 273, 4-(1H-indol-5-ylamino)-2-[(1E)-4-(4-methylpiperazin-1-yl)but-1-en-1-yl]thieno[2,3-b]pyridine-5-carbonitrile] | 6.35 | 220 °C
Cc1c(Nc2c(C#N)cnc3sc(C#Cc4ccc(CN(C)C)o4)cc23)ccc2[nH]ccc12 [Compound 449, 2-({5-[(dimethylamino)methyl]-2-furyl}ethynyl)-4-[(4-methyl-1H-indol-5-yl)amino]thieno[2,3-b]pyridine-5-carbonitrile] | 7.60 | 218 to 220 °C
Cc1c(Nc2c(C#N)cnc3sc(C#Cc4ccc(CN(C)C)nc4)cc23)ccc2[nH]ccc12 [Compound 453, 2-({6-[(dimethylamino)methyl]pyridin-3-yl}ethynyl)-4-[(4-methyl-1H-indol-5-yl)amino]thieno[2,3-b]pyridine-5-carbonitrile] | 7.22 | 230 to 232 °C
Br.N#Cc1cnc2scc(Br)c2c1Nc1ccc2[nH]ccc2c1 |  | 249 to 251 °C
Cc1c(Nc2c(C#N)cnc3sc(C#C[Si](C)(C)C)cc23)ccc2[nH]ccc12 |  | 258 to 260 °C
N#Cc1cnc2sc(-c3cccc(C=O)c3)cc2c1Nc1cccc2[nH]ccc12 [Compound 139, 2-(3-formylphenyl)-4-(1H-indol-4-ylamino)thieno[2,3-b]pyridine-5-carbonitrile] |  | > 245 °C

SMILES | pIC50 [1] | melting point
N#Cc1cnc2sc(-c3cccc(C=O)c3)cc2c1Nc1ccc2[nH]ccc2c1 [Compound 144, 2-(3-formylphenyl)-4-(1H-indol-5-ylamino)thieno[2,3-b]pyridine-5-carbonitrile] |  | 221 to 223 °C
Cl.N#Cc1cnc2sc(I)cc2c1Nc1ccc2[nH]ccc2c1 |  | 250 to 252 °C
N#Cc1cnc2sc(-c3ccccc3C=O)cc2c1Nc1ccc2[nH]ccc2c1 [Compound 184, 2-(2-formylphenyl)-4-(1H-indol-5-ylamino)thieno[2,3-b]pyridine-5-carbonitrile] |  | 222 to 224 °C
Cl.N#Cc1cnc2sc(I)cc2c1Nc1cccc2[nH]ccc12 |  | > 245 °C
N#Cc1cnc2sc(C#Cc3cnc(N)nc3)cc2c1Nc1ccc2[nH]ccc2c1 [Compound 228, 2-[(2-aminopyrimidin-5-yl)ethynyl]-4-(1H-indol-5-ylamino)thieno[2,3-b]pyridine-5-carbonitrile] | < 5.82 | 
Cc1c(Nc2c(C#N)cnc3sc(/C=C/c4ccccc4)c(C)c23)ccc2[nH]ccc12 [Compound 425, 3-methyl-4-[(4-methyl-1H-indol-5-yl)amino]-2-[(E)-2-phenylvinyl]thieno[2,3-b]pyridine-5-carbonitrile] | 7.02 | 
CN(C)Cc1cccc(-c2cc3c(Nc4cnc5[nH]ccc5c4)c(C#N)cnc3s2)c1 [Compound 320, 2-{3-[(dimethylamino)methyl]phenyl}-4-(1H-pyrrolo[2,3-b]pyridin-5-ylamino)thieno[2,3-b]pyridine-5-carbonitrile] | 6.16 | 
Cc1c(Nc2c(C#N)cnc3sc(-c4ccccc4CN(C)C)cc23)ccc2[nH]ccc12 [Compound 156, 2-{2-[(dimethylamino)methyl]phenyl}-4-[(4-methyl-1H-indol-5-yl)amino]thieno[2,3-b]pyridine-5-carbonitrile] | 7.03 | 
CN(C)C(=O)c1cccc(-c2cc3c(Nc4cccc5[nH]ccc45)c(C#N)cnc3s2)c1 [Compound 194, 3-[5-cyano-4-(1H-indol-4-ylamino)thieno[2,3-b]pyridine-2-yl]-N,N-dimethylbenzamide] | 6.92 | 
Cc1c(Nc2c(C#N)cnc3sc(/C=C/C(=O)N4CCCC4)cc23)ccc2[nH]ccc12 [Compound 294, 4-[(4-methyl-1H-indol-5-yl)amino]-2-[(1E)-3-oxo-3-pyrrolidin-1-ylprop-1-en-1-yl]thieno[2,3-b]pyridine-5-carbonitrile] | 8.40 | 
N#Cc1cnc2sc(/C=C/C(=O)NCCO)cc2c1Nc1ccc2[nH]ccc2c1 [Compound 289, (2E)-3-[5-cyano-4-(1H-indol-5-ylamino)thieno[2,3-b]pyridin-2-yl]-N-(2-hydroxyethyl)acrylamide] | 5.68 | 
Cc1c(Nc2c(C#N)cnc3sc(/C=C/C(=O)N4CCNCC4)cc23)ccc2[nH]ccc12 [Compound 311, 4-[(4-methyl-1H-indol-5-yl)amino]-2-[(1E)-3-oxo-3-piperazin-1-ylprop-1-en-1-yl]thieno[2,3-b]pyridine-5-carbonitrile] | 7.06 | 
Cc1c(Nc2c(C#N)cnc3sc(/C=C/CN4CCN(C)CC4)c(C)c23)ccc2[nH]ccc12 [Compound 279, 3-methyl-4-[(4-methyl-1H-indol-5-yl)amino]-2-[(1E)-3-(4-methylpiperazin-1-yl)prop-1-en-1-yl]thieno[2,3-b]pyridine-5-carbonitrile] | 7.77 | 
N#Cc1cnc2sc(/C=C/c3cccc(F)c3)cc2c1Nc1ccc2[nH]ccc2c1 [Compound 402, 2-[(E)-2-(3-fluorophenyl)vinyl]-4-(1H-indol-5-ylamino)thieno[2,3-b]pyridine-5-carbonitrile] | 6.33 | 
Cn1ccnc1-c1cc2c(Nc3ccc4[nH]ccc4c3)c(C#N)cnc2s1 [Compound 433, 4-(1H-indol-5-ylamino)-2-(1-methyl-1H-imidazol-2-yl)thieno[2,3-b]pyridine-5-carbonitrile] | 6.28 | 
Cc1c(Nc2c(C#N)cnc3sc(/C=C/C(=O)OC(C)(C)C)cc23)ccc2[nH]ccc12 [Compound 286, tert-butyl (2E)-3-{5-cyano-4-[(4-methyl-1H-indol-5-yl)amino]thieno[2,3-b]pyridin-2-yl}acrylate] | 6.50 | 
N#Cc1cnc2sc(/C=C/C(=O)N3CCCC3)cc2c1Nc1ccc2[nH]ccc2c1 [Compound 288, 4-(1H-indol-5-ylamino)-2-[(1E)-3-oxo-3-pyrrolidin-1-ylprop-1-en-1-yl]thieno[2,3-b]pyridine-5-carbonitrile] | 6.89 | 
Cc1c(Nc2c(C#N)cnc3sc(-c4cccc(C=O)c4)cc23)ccc2[nH]ccc12 [Compound 201, 2-(3-formylphenyl)-4-[(4-methyl-1H-indol-5-yl)amino]thieno[2,3-b]pyridine-5-carbonitrile] | 7.80 | 
Cc1c(Nc2c(C#N)cnc3sc(-c4cnccn4)cc23)ccc2[nH]ccc12 [Compound 504, 4-[(4-methyl-1H-indol-5-yl)amino]-2-pyrazin-2-ylthieno[2,3-b]pyridine-5-carbonitrile] | 7.68 | 
